# Data published in patent US20110230471A1, “BENZONAPHTYRIDINE COMPOUNDS AS INHIBITORS OF AUTOTAXIN” (MERCK PATENT GESELLSCHAFT MIT BESCHRANKTER HAFTUNG, priority 2008, published 2011).
# Target: T1, recombinant autotaxin (Homo sapiens, UniProt Q13822)
# T1 construct: made in house; host or cells: Hi5 insect cells (baculovirus)
# Experiment: Autotaxin test (enzyme test), Amplex Red
# Assay type: biochemical
# Conditions: Autotaxin inhibition (enzyme test), TABLE 2 (B compounds); substrate LPC 75 μM
# Description: The autotaxin activity is measured indirectly using Amplex Red reagent. Amplex Red is measured here as fluorogenic indicator for the H2O2 formed. In detail, autotaxin converts the substrate lysophosphatidylcholine (LPC) into phosphocholine and lysophosphatidylic acid (LPA). After this reaction, the phosphocholine is reacted with alkaline phosphatase to give inorganic phosphate and choline. In the next step, choline is oxidised by choline oxidase to give betaine, with formation of H2O2. H2O2 reacts with Amplex Red reagent in the presence of peroxidase (horseradish peroxidase) in a 1:1 stoichiometry and forms the highly fluorescent resorufin. The fluorescence is measured in a reaction-dependent kinetic mode in order that fluorescent signals from possible other fluorescent substances which are not involved in the reaction can be corrected out.
# 1.5 μl of a standard solution or of the test substances (substances with the name A(n))in individual concentrations dissolved in 20 mM Hepes pH 7.2 with a maximum of 7.7% of DMSO are pre-incubated together with 10 μl (16 ng) of highly purified recombinant autotaxin in a black microtitre plate provided with 384 wells at 22° C. for 30 min. The reaction is then initiated by addition of 5 μl of L-α-lysophosphatidylcholine (LPC), where the final concentration of LPC is 75 μM. The mixture is incubated at 37° C. for 90 min. After the incubation, Amplex Red reagent, peroxidase (horseradish peroxidase) and choline oxidase is added, and the fluorescence is immediately measured at 612 nm with excitation of 485 nm in a “Tecan Ultra multimode” reader. The activity of autotaxin is calculated indirectly via detection of the H2O2 formed.
# • Microtitre plate: PS microplate, 384 wells, small volume, black Corning, Cat#3677 • Protein: recombinant autotaxin (Baculovirale Hi5 Expression) • Substrate: L-α-lysophosphatidylcholine (chicken egg)); Avanti Polar Lipids # 830071 P • Standard: C14 LPA, Avanti Polar Lipids, Cat# 857120P • Detection reagent: Amplex Red reagent; Invitrogen # A12222; dissolved in 1.923 ml of DMSO peroxidase type VI-A (horseradish) from Sigma # P6782; dissolved in 7.45 ml of test buffer, choline oxidase; Sigma # C5896; dissolved in 2.47 ml of test buffer • Detection reagent mix: 1:100 dilution of Amplex Red reagent in test buffer • Test buffer: 200 mM Tris HCl, Merck, Cat # 1.08219, pH 7.9, 0.1% of BSA, lipid-free, Roche Cat#775835
row,IC50,SMILES
1,0.1 to 1 µM,"COc1ccc(Cl)cc1NC(=O)CN1CCc2nc3ccccc3c(C(=O)Nc3ccc4[nH]nnc4c3)c2C1 [Compound B22, N-(1H-Benzotriazol-5-yl)-2-[(5-chloro-2-methoxyphenylcarbamoyl)methyl]-1,2,3,4-tetrahydrobenzo[b][1,6]naphthyridine-10-carboxamide]"
2,> 1 µM,"COc1ccc(Cl)cc1-c1nnc(CN2CCc3nc4ccccc4c(C(=O)NCCN(C)C)c3C2)o1 [Compound B29, N-(2-Dimethylaminoethyl)-2-[5-(5-chloro-2-methoxyphenyl)-1,3,4-oxadiazol-2-ylmethyl]-1,2,3,4-tetrahydrobenzo[b][1,6]naphthyridine-10-carboxamide]"
3,> 1 µM,"COc1ccc(Cl)cc1-c1nnc(CN2CCc3nc4ccccc4c(C(=O)NCC[N+](C)(C)Cc4nnc(-c5cc(Cl)ccc5OC)o4)c3C2)o1 [Compound B30, [5-(5-Chloro-2-methoxyphenyl)-1,3,4-oxadiazol-2-ylmethyl]-[2-({2-[5-(5-chloro-2-methoxyphenyl)-1,3,4-oxadiazol-2-ylmethyl]-1,2,3,4-tetrahydrobenzo[b][1,6]naphthyridine-10-carbonyl}amino)ethyl]dimethylammonium]"
4,> 1 µM,"COc1ccc(Cl)cc1-c1nnc(CN2CCc3nc4ccccc4c(C(=O)NC4CCN(C)CC4)c3C2)o1 [Compound B33, N-(1-Methylpiperidin-4-yl)-2-[5-(5-chloro-2-methoxyphenyl)-1,3,4-oxadiazol-2-ylmethyl]-1,2,3,4-tetrahydrobenzo[b][1,6]naphthyridine-10-carboxamide]"
5,> 1 µM,CN1CCC(NC(=O)c2c3c(nc4ccccc24)CCN(CCC(=O)Nc2cc(Cl)ccc2N)C3)CC1 [Compound B37]
6,> 1 µM,"COc1ccc(Cl)cc1/C=C/C(=O)N1CCc2nc3ccccc3c(C(=O)NC3CCN(C)CC3)c2C1 [Compound B40, N-(1-Methylpiperidin-4-yl)-2-[(E)-3-(5-chloro-2-methoxyphenyl)acryloyl]-1,2,3,4-tetrahydrobenzo[b][1,6]naphthyridine-10-carboxamide]"
7,0.1 to 1 µM,"COc1ccc(Cl)cc1NC(=O)CN1CCc2nc3ccccc3c(C(=O)NC3CCOCC3)c2C1 [Compound B43, N-(Tetrahydropyran-4-yl)-2-[(5-chloro-2-methoxyphenylcarbamoyl)methyl]-1,2,3,4-tetrahydrobenzo[b][1,6]naphthyridine-10-carboxamide]"

# The remaining lines, values behind:
row,SMILES,IC50
1,"COc1ccc(Cl)cc1-c1nc(CN2CCc3nc4ccccc4c(C(=O)NC4CCN(C)CC4)c3C2)no1 [Compound B20, N-(1-Methylpiperidin-4-yl)-2-[5-(5-chloro-2-methoxyphenyl)-1,2,4-oxadiazol-3-ylmethyl]-1,2,3,4-tetrahydrobenzo[b][1,6]naphthyridine-10-carboxamide]",> 1 µM
2,"O=C(CN1CCc2nc3ccccc3c(C(=O)N3CCN(CCO)CC3)c2C1)Nc1cccc(-c2ccccc2)c1 [Compound B21, N-Biphenyl-3-yl-2-{10-[4-(2-hydroxyethyl)piperazine-1-carbonyl]-3,4-dihydro-1H-benzo[b][1,6]naphthyridin-2-yl}acetamide]",> 1 µM
3,"COc1c(F)cc(Br)cc1NC(=O)CN1CCc2nc3ccccc3c(C(=O)N3CCOCC3)c2C1 [Compound B24, N-(5-Bromo-3-fluoro-2-methoxyphenyl)-2-[10-(morpholine-4-carbonyl)-3,4-dihydro-1H-benzo[b][1,6]naphthyridin-2-yl]acetamide]",0.1 to 1 µM
4,"COCCNC(=O)c1c2c(nc3ccccc13)CCN(Cc1nnc(-c3cc(Cl)ccc3OC)o1)C2 [Compound B31, N-(2-Methoxyethyl)-2-[5-(5-chloro-2-methoxyphenyl)-1,3,4-oxadiazol-2-yl-methyl]-1,2,3,4-tetrahydrobenzo[b][1,6]naphthyridine-10-carboxamide]",> 1 µM
5,"CCNC(=O)c1c2c(nc3ccccc13)CCN(Cc1nnc(-c3cc(Cl)ccc3OC)o1)C2 [Compound B32, N-Ethyl-2-[5-(5-chloro-2-methoxyphenyl)-1,3,4-oxadiazol-2-ylmethyl]-1,2,3,4-tetrahydrobenzo[b][1,6]naphthyridine-10-carboxamide]",> 1 µM
6,"COc1c(F)cc(-c2ccc(N)cc2)cc1NC(=O)CN1CCc2nc3ccccc3c(C(=O)N3CCOCC3)c2C1 [Compound B35, N-(4′-Amino-5-fluoro-4-methoxybiphenyl-3-yl)-2-[10-(morpholine-4-carbonyl)-3,4-dihydro-1H-benzo[b][1,6]naphthyridin-2-yl]acetamide]",> 1 µM
7,"COc1ccc(Cl)cc1NC(=O)CN1CCc2nc3ccccc3c(C(=O)NCCF)c2C1 [Compound B42, N-(2-Fluoroethyl)-2-[(5-chloro-2-methoxyphenylcarbamoyl)methyl]-1,2,3,4-tetrahydrobenzo[b][1,6]naphthyridine-10-carboxamide]",> 1 µM
8,"COc1ccc(Cl)cc1NC(=O)CN1CCc2nc3ccccc3c(C(=O)NC3CCCNC3=O)c2C1 (stereo not drawn) [Compound B47, N-(2-Oxopiperidin-3-yl)-2-[(5-chloro-2-methoxyphenylcarbamoyl)methyl]-1,2,3,4-tetrahydrobenzo[b][1,6]naphthyridine-10-carboxamide]",0.1 to 1 µM
9,"O=C(c1c2c(nc3ccccc13)CCN(Cc1ccnc(Cl)c1)C2)N1CCOCC1 [Compound B52, [2-(2-Chloropyridin-4-ylmethyl)-1,2,3,4-tetrahydrobenzo[b][1,6]naphthyridin-10-yl]morpholin-4-ylmethanone]",> 1 µM
10,"COc1ccc(Cl)cc1NC(=O)CN1CCc2nc3ccccc3c(C(=O)NC3CCCNC3)c2C1 (stereo not drawn) [Compound B53, N-Piperidin-3-yl-2-[(5-chloro-2-methoxyphenylcarbamoyl)methyl]-1,2,3,4-tetrahydrobenzo[b][1,6]naphthyridine-10-carboxamide]",> 1 µM
11,"CN1CCC(NC(=O)c2c3c(nc4ccccc24)CCN(Cc2ccc4c(Cl)cc(Cl)c(O)c4n2)C3)CC1 [Compound B57, N-(1-Methylpiperidin-4-yl)-2-(5,7-dichloro-8-hydroxyquinolin-2-ylmethyl)-1,2,3,4-tetrahydrobenzo[b][1,6]naphthyridine-10-carboxamide]",> 1 µM
